From patent publication US7604978B2, “Inhibition of biofilm formation” (Sequoia Sciences, Inc., priority 2004, dated 2009)

Key:
E. coli JM109 genes = test: DNA microarray, genes induced by asiatic acid; assay type: cell-based; conditions: M9C glucose media
Procedure: The same amount of ethanol was supplemented to eliminate solvent effects. The cultures were grown to an OD600 of 0.9. The cells were centrifuged in a microcentrifuge for 15 seconds at 20,000×g in mini bead beater tubes (Biospec, Bartlesville, Okla.) that were cooled to -80° C. before sampling. The cell pellets were flash frozen in a dry ice-ethanol bath and stored at -80° C. until RNA isolation. To lyse the cells, 1.0 mL RLT buffer (Qiagen, Inc., Valencia, Calif.) and 0.2 mL 0.1 mm zirconia/silica beads (Biospec) were added to the frozen bead beater tubes containing the cell pellets. The tubes were closed tightly and beat for 30 seconds at the maximum speed in a mini bead beater (cat. no. 3110BX, Biospec). The total RNA was isolated by following the protocol of the RNeasy Mini Kit (Qiagen) including an on-column DNase digestion with RNase-free DNase I (Qiagen). OD260 was used to quantify the RNA yield. OD260/OD280 and […]/16S rRNA were measured using a 2100 Bioanalyzer (Agilent Technologies, Palo Alto, Calif.) to check the purity and integrity of RNA (RNeasy Mini handbook, Qiagen). The E. coli DNA microarrays were prepared as described previously by Wei, Y. et al (Journal of Bacteriology, 2001, 183 (2) p. 545-556). […] The double-strand PCR products were denatured in 50% dimethyl sulfoxide and spotted onto aminosilane slides (Full Moon Biosystems, Sunnyvale, Calif.) as probes to hybridize with the mRNA-derived cDNA samples. It has been shown that each array can detect 4228 of the 4290 E. coli ORFs. Each gene has two spots per slide. Briefly, the total RNA from the E. coli K12 samples grown with and without ursolic acid was first converted into labeled cDNA. […] The Cy3-labeled sample without ursolic acid and the Cy5-labeled ursolic acid sample (with 10 or 30 μg/mL ursolic acid) were hybridized on the first slide. Similarly, the Cy5-labeled sample without ursolic acid and the Cy3-labeled ursolic acid sample were hybridized on the second slide. Since each gene has two spots on a slide, the two hybridizations generated eight data points for each gene (four points for the sample without ursolic acid and four points for the ursolic acid sample). The microarray experiments with dye-swapping were repeated for both concentrations of ursolic acid. […] The arrays were rinsed with double-distilled water and were spun dry by centrifugation. Labeled cDNA (6 μg) was concentrated to 10 μl of total volume and was mixed with 10 μl of 4×cDNA hybridization solution (Full Moon Biosystems) and 20 μl of formamide (EM Science, Gibbstown, N.J.). The hybridization mix was heated to 95° C. for 2 min and was added to the DNA microarrays; each array was covered with a coverslip (Corning, Big Flats, N.Y.) and was incubated overnight at 37° C. for hybridization. When the hybridization was finished, the coverslips were removed in 1×SSC-0.1% SDS at room temperature, and the arrays were washed once for 5 min in 1×SSC-0.1% SDS at 40° C., twice for 10 min in 0.1×SSC-0.1% SDS at 40° C., and twice for 1 min in 0.1×SSC at 40° C. The arrays were quickly rinsed by dipping in room-temperature double-distilled water and were then spun dry by centrifugation. The hybridized slides were scanned with the Generation III Array Scanner (Molecular Dynamics Corp.). Readings at 570 and 670 nm was used to quantify the probes labeled with Cy3 and Cy5 separately. The signal was quantified with Array Vision 4.0 or 6.0 software (Imaging Research, St. Catherines, Ontario, Canada). […] P-values were calculated on log-transformed, normalized intensities. Including the p-value criterion ensures the reliability of the induced/repressed gene list. Normalization was relative to the median total fluorescent intensity per slide per channel. Example 3 was repeated, except asiatic acid ([…]) was added instead of ursolic acid.

E. coli JM109 = test: Biofilm inhibition by asiatic acid; assay type: cell-based; conditions: Escherichia coli, JM 109, E. coli JM109, MC9 glucose media
Procedure: Inhibition of biofilm formation by E. coli K12 [R1drd19], P. aeruginosa PAO1, and V harveyi BB120 by the addition of 10 μg/mL ursolic acid. For E. coli K12 [R1drd19], data were collected 16 hours after addition of ursolic acid to a 24 hour biofilm in LB medium; for P. aeruginosa PAO1, data were collected 18 hours after addition of ursolic acid with inoculation in LB medium plus 1% sodium citrate; and for V. harveyi BB120, data were collected 18 hours after addition of ursolic acid with inoculation in M9 medium. All biofilm mass readings at OD540 were normalized based on the reading of wild type without ursolic acid which was normalized to 1. One standard deviation is shown.
Example 1 was repeated, except asiatic acid was added with inoculation in E. coli JM109 in MC9 glucose media.

C[C@H]1[C@H](C)CC[C@]2(C(=O)O)CC[C@]3(C)C(=CC[C@@H]4[C@@]5(C)C[C@@H](O)[C@H](O)[C@@](C)(CO)[C@@H]5CC[C@]43C)[C@H]12 [asiatic acid]
ER (expression ratio) gene b0829 (E. coli JM109 genes; 10 μg/mL asiatic acid): 2.83 | ER (expression ratio) gene b1729 (E. coli JM109 genes; 10 μg/mL asiatic acid): 2.64 | ER (expression ratio) gene b1963 (E. coli JM109 genes; 10 μg/mL asiatic acid): 2.14 | ER (expression ratio) gene b2332 (E. coli JM109 genes; 10 μg/mL asiatic acid): 2.14 | ER (expression ratio) gene b2420 (E. coli JM109 genes; 10 μg/mL asiatic acid): 4.29 | ER (expression ratio) gene b2531 (E. coli JM109 genes; 10 μg/mL asiatic acid): 2.46 | ER (expression ratio) gene b2670 (E. coli JM109 genes; 10 μg/mL asiatic acid): 3.25 | ER (expression ratio) gene b2834 (E. coli JM109 genes; 10 μg/mL asiatic acid): 2.30 | ER (expression ratio) gene bolA (E. coli JM109 genes; 10 μg/mL asiatic acid): 2.30 | ER (expression ratio) gene cbl (E. coli JM109 genes; 10 μg/mL asiatic acid): 13.93 | ER (expression ratio) gene cysA (E. coli JM109 genes; 10 μg/mL asiatic acid): 4.00 | ER (expression ratio) gene cysB (E. coli JM109 genes; 10 μg/mL asiatic acid): 6.06 | ER (expression ratio) gene cysC (E. coli JM109 genes; 10 μg/mL asiatic acid): 10.56 | ER (expression ratio) gene cysD (E. coli JM109 genes; 10 μg/mL asiatic acid): 6.96 | ER (expression ratio) gene cysH (E. coli JM109 genes; 10 μg/mL asiatic acid): 4.59 | ER (expression ratio) gene cysI (E. coli JM109 genes; 10 μg/mL asiatic acid): 4.29 | ER (expression ratio) gene cysJ (E. coli JM109 genes; 10 μg/mL asiatic acid): 3.73 | ER (expression ratio) gene cysK (E. coli JM109 genes; 10 μg/mL asiatic acid): 4.59 | ER (expression ratio) gene cysM (E. coli JM109 genes; 10 μg/mL asiatic acid): 3.73 | ER (expression ratio) gene cysN (E. coli JM109 genes; 10 μg/mL asiatic acid): 11.31 | ER (expression ratio) gene cysP (E. coli JM109 genes; 10 μg/mL asiatic acid): 4.29 | ER (expression ratio) gene cysU (E. coli JM109 genes; 10 μg/mL asiatic acid): 4.92 | ER (expression ratio) gene cysW (E. coli JM109 genes; 10 μg/mL asiatic acid): 4.59 | ER (expression ratio) gene dgt (E. coli JM109 genes; 10 μg/mL asiatic acid): 2.14 | ER (expression ratio) gene fliY (E. coli JM109 genes; 10 μg/mL asiatic acid): 4.00 | ER (expression ratio) gene ftn (E. coli JM109 genes; 10 μg/mL asiatic acid): 3.25 | ER (expression ratio) gene glgS (E. coli JM109 genes; 10 μg/mL asiatic acid): 2.14 | ER (expression ratio) gene iIvG_1 (E. coli JM109 genes; 10 μg/mL asiatic acid): 2.83 | ER (expression ratio) gene iIvL (E. coli JM109 genes; 10 μg/mL asiatic acid): 2.30 | ER (expression ratio) gene msrA (E. coli JM109 genes; 10 μg/mL asiatic acid): 2.30 | ER (expression ratio) gene nlpA (E. coli JM109 genes; 10 μg/mL asiatic acid): 18.38 | ER (expression ratio) gene pssR (E. coli JM109 genes; 10 μg/mL asiatic acid): 2.46 | ER (expression ratio) gene pstS (E. coli JM109 genes; 10 μg/mL asiatic acid): 2.64 | ER (expression ratio) gene sbp (E. coli JM109 genes; 10 μg/mL asiatic acid): 18.38 | ER (expression ratio) gene tauA (E. coli JM109 genes; 10 μg/mL asiatic acid): 2.46 | ER (expression ratio) gene yaeG (E. coli JM109 genes; 10 μg/mL asiatic acid): 4.59 | ER (expression ratio) gene yaiB (E. coli JM109 genes; 10 μg/mL asiatic acid): 2.30 | ER (expression ratio) gene ybgR (E. coli JM109 genes; 10 μg/mL asiatic acid): 2.46 | ER (expression ratio) gene ybiK (E. coli JM109 genes; 10 μg/mL asiatic acid): 6.50 | ER (expression ratio) gene yciW (E. coli JM109 genes; 10 μg/mL asiatic acid): 3.03 | ER (expression ratio) gene yedO (E. coli JM109 genes; 10 μg/mL asiatic acid): 3.73 | ER (expression ratio) gene yeeD (E. coli JM109 genes; 10 μg/mL asiatic acid): 3.73 | ER (expression ratio) gene yeeE (E. coli JM109 genes; 10 μg/mL asiatic acid): 3.25 | ER (expression ratio) gene ygbE (E. coli JM109 genes; 10 μg/mL asiatic acid): 6.96 | ER (expression ratio) gene yicG (E. coli JM109 genes; 10 μg/mL asiatic acid): 2.83 | ER (expression ratio) gene yicL (E. coli JM109 genes; 10 μg/mL asiatic acid): 6.50 | ER (expression ratio) gene yjaE (E. coli JM109 genes; 10 μg/mL asiatic acid): 2.00 | ER (expression ratio) gene yjiD (E. coli JM109 genes; 10 μg/mL asiatic acid): 7.46 | ER (expression ratio) gene yrbL (E. coli JM109 genes; 10 μg/mL asiatic acid): 2.64 | ER (expression ratio) gene b0829 (E. coli JM109 genes; 30 μg/mL asiatic acid): 2.46 | ER (expression ratio) gene b1729 (E. coli JM109 genes; 30 μg/mL asiatic acid): 2.30 | ER (expression ratio) gene b1963 (E. coli JM109 genes; 30 μg/mL asiatic acid): 2.30 | ER (expression ratio) gene b2332 (E. coli JM109 genes; 30 μg/mL asiatic acid): 2.30 | ER (expression ratio) gene b2420 (E. coli JM109 genes; 30 μg/mL asiatic acid): 2.14 | ER (expression ratio) gene b2531 (E. coli JM109 genes; 30 μg/mL asiatic acid): 2.14 | ER (expression ratio) gene b2670 (E. coli JM109 genes; 30 μg/mL asiatic acid): 2.64 | ER (expression ratio) gene b2834 (E. coli JM109 genes; 30 μg/mL asiatic acid): 2.00 | ER (expression ratio) gene bolA (E. coli JM109 genes; 30 μg/mL asiatic acid): 2.64 | ER (expression ratio) gene cbl (E. coli JM109 genes; 30 μg/mL asiatic acid): 13.00 | ER (expression ratio) gene cysA (E. coli JM109 genes; 30 μg/mL asiatic acid): 3.48 | ER (expression ratio) gene cysB (E. coli JM109 genes; 30 μg/mL asiatic acid): 4.29 | ER (expression ratio) gene cysC (E. coli JM109 genes; 30 μg/mL asiatic acid): 6.96 | ER (expression ratio) gene cysD (E. coli JM109 genes; 30 μg/mL asiatic acid): 6.50 | ER (expression ratio) gene cysH (E. coli JM109 genes; 30 μg/mL asiatic acid): 3.03 | ER (expression ratio) gene cysI (E. coli JM109 genes; 30 μg/mL asiatic acid): 3.25 | ER (expression ratio) gene cysJ (E. coli JM109 genes; 30 μg/mL asiatic acid): 4.00 | ER (expression ratio) gene cysK (E. coli JM109 genes; 30 μg/mL asiatic acid): 3.48 | ER (expression ratio) gene cysM (E. coli JM109 genes; 30 μg/mL asiatic acid): 3.25 | ER (expression ratio) gene cysN (E. coli JM109 genes; 30 μg/mL asiatic acid): 7.46 | ER (expression ratio) gene cysP (E. coli JM109 genes; 30 μg/mL asiatic acid): 4.92 | ER (expression ratio) gene cysU (E. coli JM109 genes; 30 μg/mL asiatic acid): 4.92 | ER (expression ratio) gene cysW (E. coli JM109 genes; 30 μg/mL asiatic acid): 4.00 | ER (expression ratio) gene dgt (E. coli JM109 genes; 30 μg/mL asiatic acid): 2.30 | ER (expression ratio) gene fliY (E. coli JM109 genes; 30 μg/mL asiatic acid): 3.25 | ER (expression ratio) gene ftn (E. coli JM109 genes; 30 μg/mL asiatic acid): 3.03 | ER (expression ratio) gene glgS (E. coli JM109 genes; 30 μg/mL asiatic acid): 2.30 | ER (expression ratio) gene iIvG_1 (E. coli JM109 genes; 30 μg/mL asiatic acid): 2.00 | ER (expression ratio) gene iIvL (E. coli JM109 genes; 30 μg/mL asiatic acid): 3.48 | ER (expression ratio) gene msrA (E. coli JM109 genes; 30 μg/mL asiatic acid): 2.64 | ER (expression ratio) gene nlpA (E. coli JM109 genes; 30 μg/mL asiatic acid): 9.85 | ER (expression ratio) gene pssR (E. coli JM109 genes; 30 μg/mL asiatic acid): 2.14 | ER (expression ratio) gene pstS (E. coli JM109 genes; 30 μg/mL asiatic acid): 2.00 | ER (expression ratio) gene sbp (E. coli JM109 genes; 30 μg/mL asiatic acid): 12.13 | ER (expression ratio) gene tauA (E. coli JM109 genes; 30 μg/mL asiatic acid): 2.00 | ER (expression ratio) gene yaeG (E. coli JM109 genes; 30 μg/mL asiatic acid): 4.00 | ER (expression ratio) gene yaiB (E. coli JM109 genes; 30 μg/mL asiatic acid): 2.64 | ER (expression ratio) gene ybgR (E. coli JM109 genes; 30 μg/mL asiatic acid): 2.46 | ER (expression ratio) gene ybiK (E. coli JM109 genes; 30 μg/mL asiatic acid): 5.66 | ER (expression ratio) gene yciW (E. coli JM109 genes; 30 μg/mL asiatic acid): 3.73 | ER (expression ratio) gene yedO (E. coli JM109 genes; 30 μg/mL asiatic acid): 2.83 | ER (expression ratio) gene yeeD (E. coli JM109 genes; 30 μg/mL asiatic acid): 2.30 | ER (expression ratio) gene yeeE (E. coli JM109 genes; 30 μg/mL asiatic acid): 2.14 | ER (expression ratio) gene ygbE (E. coli JM109 genes; 30 μg/mL asiatic acid): 5.28 | ER (expression ratio) gene yicG (E. coli JM109 genes; 30 μg/mL asiatic acid): 2.30 | ER (expression ratio) gene yicL (E. coli JM109 genes; 30 μg/mL asiatic acid): 2.83 | ER (expression ratio) gene yjaE (E. coli JM109 genes; 30 μg/mL asiatic acid): 2.14 | ER (expression ratio) gene yjiD (E. coli JM109 genes; 30 μg/mL asiatic acid): 9.85 | ER (expression ratio) gene yrbL (E. coli JM109 genes; 30 μg/mL asiatic acid): 2.46 | inhibition at 5 µg/mL (E. coli JM109; 5 μg/ml): ~75% | inhibition at 10 µg/mL (E. coli JM109; 10 μg/ml): ~80% | inhibition at 15 µg/mL (E. coli JM109; 15 μg/ml): ~85%
